{"source": "patent US9681658B2", "about": "“Penetrants for agrochemical formulations” (CRODA INTERNATIONAL PLC, priority 2012, dated 2017)", "tested_on": "Isolated cuticles from apple leaves (Malus domestica cv. 'Golden Delicious')", "assay": "Leaf penetration (Franz cell diffusion of Imidacloprid through isolated cuticles)", "assay_type": "in vitro ADME", "settings": "active alone without penetrant", "method": "The following test method was used to assess leaf penetration properties of the synthesised ethoxylated polyol alkoxylates P1 to P18.\nFranz cells were set up containing: • Receptor solution: 10 mM sodium phosphate buffer pH 6.0 containing 0.1 mM sodium azide • Donor solution: unformulated pesticide containing 0.5 g/l of Imidacloprid (N-[1-[(6-Chloro-3-pyridyl)methyl]-4,5-dihydroimidazol-2-yl]nitramide) and 2.5 g/l of penetrant, in 5 mM lactic acid (pre-buffered with KOH), preserved with 0.5 mM sodium azide, (+/−0.25% w/v), i.e. 2.5 g/l donor).\nThe Franz cell experiments were used for diffusion experiments. Isolated cuticles from apple leaves (Malus domestica cv. ‘Golden Delicious’) were prepared based on the method detailed in US 2009/0247597. The donor compartment was removed to aid deposit formation. Experiments were performed at a controlled temperature of 20° C., and a controlled relative humidity of 58%. A calibration was carried out (0-100% penetration) obtaining the concentration of Imidacloprid in the receiver solution removed from the Franz Cell.\nHPLC-UV was used to assay imidacloprid concentration using an Agilent 1260 Quaternary LC system. Each penetrant was tested for leaf penetration properties, with a total of 18 Franz cells used for percentage penetration determination. A calibration was carried out before each set of samples was analysed. […]"}
{"smiles": "O=[N+]([O-])NC1=NCCN1Cc1ccc(Cl)nc1", "note": "[Imidacloprid, N-[1-[(6-Chloro-3-pyridyl)methyl]-4,5-dihydroimidazol-2-yl]nitramide]", "values": [{"measurement": "% penetration after 72 hours", "value": 1.7, "unit": "%"}]}
